From US20230382869A1, “Phenyl-3,4-dihydroisoquinolin-2(1h)-yl-ethan-1-one derivatives as dopamine d1receptor positive allosteric modulators” (Eli Lilly and Company, priority 2020, published 2023)
Marks after values point to notes of the source that are not given here.

Assays:
[1] = tested on: human D1 receptor knock-in mice; test: Basal (Habituated) Locomotor Activity; assay type: in vivo, mouse; conditions: for Basal Locomotor Activity (Total Ambulations for 60 min) Means: N = 8/group
Method: Locomotor activity is measured using an automated system to track movement in mice. Monitoring of mouse locomotor activity behaviors take place in transparent plastic shoebox cages having dimensions of 45×25×20 cm, with a 1 cm depth of wood chips for absorbent bedding, and covered with a ventilated filtered plastic cage top. Cages were placed in a rectangular frame containing a grid of 12 photocell beams in an 8×4 configuration (Kinder Scientific, Poway, CA) that is positioned 2.5 centimeters from the floor of the cage for the detection of body movements (ambulations) and recorded by computer.
Male human D1 receptor knock-in mice are placed in chambers and allowed to habituate to the chambers for 60 min. During the habituation period, the mice show decreasing locomotion over time, as expected. Following administration of a compound of the invention, animal movement is found to increase in a dose-dependent fashion.
The mice are randomly assigned to treatment groups. In the dose response study, each mouse is placed individually into one of the locomotor activity boxes for a 60 min. habituation period. The mice are then dosed orally using test compound in a 20% hydroxypropyl-betacyclodextrin vehicle and using a 10 mL/kg dose volume. After dosing, the mice are placed back into the LMA boxes and the total number of ambulations is recorded per 10 min interval for each mouse over a 60 min measurement period. Statistical analysis is carried out using one-way ANOVA followed by post-hoc analysis using Dunnett's Comparison test.

[2] = Passive permeability in MDCKII cell line (Papp); assay type: in vitro ADME; conditions: dog, MDCK
Excerpt: Papp is the passive permeability measured in MDCKII cell line in house

**Q.** Which “Basal Locomotor Activity (Total Ambulations for 60 min) Means” value (from here on “Basal Locomotor Activity”) ([1]; 3.0 mg/kg PO) does the source give for `C[C@H]1c2ccc(F)c(CCC(C)(C)O)c2C[C@H](CO)N1C(=O)Cc1c(F)cccc1Cl` [Example 7, 2-(2-chloro-6-fluoro-phenyl)-1-[(1S,3R)-6-fluoro-3-(hydroxymethyl)-5-(3-hydroxy-3-methyl-butyl)-1-methyl-3,4-dihydro-1H-isoquinolin-2-yl]ethanone] here?
**A.** 538

**Q.** And the “Basal Locomotor Activity” value ([1]; 6.0 mg/kg PO)?
**A.** 1111

**Q.** And the “Basal Locomotor Activity” value ([1]; 10 mg/kg PO)?
**A.** 1471***

**Q.** And the “Basal Locomotor Activity” value ([1]; 30 mg/kg PO)?
**A.** 3937****

**Q.** And the “Basal Locomotor Activity” value ([1]; 60 mg/kg PO)?
**A.** 4613****

**Q.** And the “in vivo efficacy in locomotor activation” value ([1]; 10, 30, and 60 mg/kg PO, habituated mice)?
**A.** significant in vivo efficacy

**Q.** And the basal movement ([1]; oral dose response, 3-60 mg/kg)?
**A.** increase basal movement in a dose dependent manner

**Q.** What about the Papp [2] of the same compound?
**A.** 37.9 ×10⁻⁶ cm/s
